Results on three compounds are retold here after the NIST ThermoML archive (doi:10.1021/je900042q).

± gives the expanded uncertainty stated by the source.

For series [1] the following is noted: Liquid; for mass density: 298.15 K, 101.33 kPa; for vapor or sublimation pressure: Ebulliometric method (Recirculating still).
Series [2] in a line: refractive index (Na D-line) (dimensionless). To be noted: 298.15 K; 101.33 kPa; Liquid; Standard Abbe refractometry.

As a reminder, the mass density is mass per unit of volume. As usually defined, the vapor or sublimation pressure is the pressure of vapour in equilibrium with the condensed phase. One may read the refractive index as a measure of how strongly the sample bends light. In the case of `CC(C)OC(C)C` [diisopropyl ether], in series [1], the mass density was 718.32 ± 0.96 kg/m3. In addition, the “vapor or sublimation pressure” value in series [1] (341.49 K) was 101.3 ± 0.3 kPa. For the same compound, the refractive index in series [2] came to 1.3652 ± 0.0005.

Regarding `CC(C)O` [propan-2-ol], the mass density in series [1] was found to be 782.69 ± 0.24 kg/m3. The “vapor or sublimation pressure” value in series [1] (355.35 K) is recorded as 101.3 ± 0.2 kPa. For the same compound, the refractive index in series [2] came out at 1.3754 ± 0.0005.

As for `CCCCOC(=O)CC` [butyl propanoate], the mass density in series [1] was 870.88 ± 0.65 kg/m3. In addition, the “vapor or sublimation pressure” value in series [1] (418.69 K) came to 101.3 ± 0.3 kPa. The refractive index in series [2] was found to be 1.3992 ± 0.0005.
